{
  "source": "patent US5652100A",
  "about": "“Stably transfected rodent fibroblast cell lines expressing human GABA-A -receptors” (priority 1992, dated 1997)",
  "molecular_target": "T1, recombinant GABAA receptor (α1 β1 γ2L) expressed by population A cells (Bos taurus, UniProt P08219+P08220+P22300)",
  "T1 construct": "expressed in transfected cells; clone 'population A'",
  "T1 sequence (P08219 28-456)": "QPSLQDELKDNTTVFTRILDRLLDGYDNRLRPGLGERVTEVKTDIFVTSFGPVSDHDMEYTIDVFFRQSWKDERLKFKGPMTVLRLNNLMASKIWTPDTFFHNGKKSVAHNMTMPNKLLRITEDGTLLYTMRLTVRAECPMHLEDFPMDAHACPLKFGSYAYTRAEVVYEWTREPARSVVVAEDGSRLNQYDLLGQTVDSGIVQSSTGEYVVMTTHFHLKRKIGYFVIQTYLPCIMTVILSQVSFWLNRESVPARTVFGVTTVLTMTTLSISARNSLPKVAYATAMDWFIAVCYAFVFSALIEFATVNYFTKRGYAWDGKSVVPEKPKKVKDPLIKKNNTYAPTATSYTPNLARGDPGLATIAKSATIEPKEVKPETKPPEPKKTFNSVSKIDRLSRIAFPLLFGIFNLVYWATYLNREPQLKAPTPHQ",
  "T1 sequence (P08220 26-474)": "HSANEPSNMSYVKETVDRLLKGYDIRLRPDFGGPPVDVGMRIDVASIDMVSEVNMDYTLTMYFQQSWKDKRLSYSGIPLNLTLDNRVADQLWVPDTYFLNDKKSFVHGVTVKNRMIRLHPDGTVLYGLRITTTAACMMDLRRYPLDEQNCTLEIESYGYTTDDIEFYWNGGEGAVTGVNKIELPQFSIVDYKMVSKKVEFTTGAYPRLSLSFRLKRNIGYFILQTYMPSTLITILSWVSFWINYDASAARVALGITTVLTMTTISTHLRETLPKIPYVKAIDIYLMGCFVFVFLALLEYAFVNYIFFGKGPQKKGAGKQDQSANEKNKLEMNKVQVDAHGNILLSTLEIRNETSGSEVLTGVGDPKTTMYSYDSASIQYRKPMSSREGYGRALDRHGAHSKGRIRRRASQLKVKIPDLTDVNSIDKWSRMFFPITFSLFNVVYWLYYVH",
  "T1 sequence (P22300 40-475)": "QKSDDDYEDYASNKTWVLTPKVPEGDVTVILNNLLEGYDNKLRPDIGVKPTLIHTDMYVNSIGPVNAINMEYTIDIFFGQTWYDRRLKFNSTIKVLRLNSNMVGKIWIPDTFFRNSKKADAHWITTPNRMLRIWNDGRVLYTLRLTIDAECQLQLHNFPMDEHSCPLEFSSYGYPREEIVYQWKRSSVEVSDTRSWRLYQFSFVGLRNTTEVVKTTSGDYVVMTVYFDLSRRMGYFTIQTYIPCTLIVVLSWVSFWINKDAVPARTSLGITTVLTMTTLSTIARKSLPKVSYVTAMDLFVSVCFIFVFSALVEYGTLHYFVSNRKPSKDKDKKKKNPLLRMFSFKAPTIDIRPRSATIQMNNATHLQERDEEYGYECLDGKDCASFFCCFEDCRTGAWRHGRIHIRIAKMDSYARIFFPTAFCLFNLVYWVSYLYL",
  "assay_type": "cell-based, bovine",
  "text": "The nature of the GABAA receptor expressed by population A cells has been extensively characterised by electrophysiological techniques, using whole cell patch clamp.",
  "key": {"[1]": {"settings": "whole cell patch clamp, qualitative"}},
  "note": "Where two headings read alike, the source gives them in different places.",
  "data": [
    {"molecule": "NCCCC(=O)O", "note": "[GABA, Gamma-amino butyric acid]", "values": [
      {"measurement": "Hill coefficient of GABA concentration response curves", "setting": "dexamethasone-induced cells, whole cell patch clamp", "result": 1.9}
    ]},
    {"molecule": "picrotoxin", "values": [
      {"measurement": "antagonism of the response to GABA", "setting": "[1]", "result": "antagonised"}
    ]},
    {"molecule": "CCCC(C)C1(CC)C(=O)NC(=O)NC1=O", "note": "(stereo not drawn) [pentobarbitone]", "values": [
      {"measurement": "potentiation of the response to GABA", "setting": "[1]", "result": "potentiated"}
    ]},
    {"molecule": "CC(=O)[C@H]1CC[C@H]2[C@@H]3CC[C@H]4C[C@H](O)CC[C@]4(C)[C@H]3C(=O)C[C@]12C", "note": "[alphaxalone]", "values": [
      {"measurement": "potentiation of the response to GABA", "setting": "[1]", "result": "potentiated"}
    ]},
    {"molecule": "CN1CCc2cc3c(cc2[C@H]1[C@@H]1OC(=O)c2c1ccc1c2OCO1)OCO3", "note": "[bicuculline]", "values": [
      {"measurement": "antagonism of the response to GABA", "setting": "[1]", "result": "antagonised"}
    ]},
    {"molecule": "Cc1nnc2ccc(-c3cccc(C(F)(F)F)c3)nn12", "note": "[CL218872]", "values": [
      {"measurement": "potentiation of the response to GABA", "result": "potentiated"}
    ]}
  ]
}
